pIC50: −log10 of the molar value. Read-outs that look alike come from different tables or passages of the source.
Assays:
NF-κB = NF-κB assay: THP1-NF-κB-LUC cells, LPS-stimulated secreted luciferase; type: cell-based; conditions: THP1-NF-κB-LUC cells, read-out: IC50 (NF-κB assay)
Procedure, shortened: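 THP1-NF-κB-LUC cells (25k/well) were pretreated with compounds for 2 h, then stimulated with LPS (10 ng/mL) for 18 h. Secreted luciferase was measured and normalized to vehicle, and IC50 was fitted from the concentration series.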

TNF release = test: TNF assay: TNF release from LPS-stimulated human PBMCs (TNF ELISA); type: cell-based; conditions: PBMC, read-out: IC50 (TNF assay)
Procedure, shortened: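 Human PBMCs at 10k/well pretreated with compound dilutions 2 h, then stimulated with LPS (10 ng/mL) for 18 h. TNF in supernatants quantified by ELISA; IC50 for inhibition of TNF release fitted from concentration–response.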

[1] = LPS-stimulated human PBMCs, TNF ELISA
[2] = compounds 2 hours before LPS (10 ng/mL) for 18 hours, secreted luciferase
[3] = human PBMCs, compounds 2 hours before LPS (10 ng/ml) for 18 hours, supernatant TNF ELISA

Structure (SMILES)	pIC50 (NF-κB; LPS-stimulated)	pIC50 (TNF release; [1])	pIC50 (NF-κB; [2])	pIC50 (TNF release; [3])
Cc1ccc(NS(=O)(=O)c2cc3c(cc2Br)NC(=O)CCO3)cc1 [BC19661]	< 5.00	< 5.00	–	–
COCC[S+]([O-])c1sc(-c2cccnc2)nc1S(=O)(=O)c1ccc(Cl)cc1 (stereo not shown) [BC19679]	5.00 to 6.00	6.00 to 7.00	–	–
O=C1CCOc2c(cc(Br)cc2S(=O)(=O)Nc2ccc(Cl)cc2)N1 [BC19685]	> 7.00	5.00 to 6.00	–	–
CCc1ccc(NS(=O)(=O)c2cc(Br)cc3c2OCCC(=O)N3)cc1 [BC19686]	> 7.00	< 5.00	–	–
CC(C)c1ccc(NS(=O)(=O)c2cc(Br)cc3c2OCCC(=O)N3)cc1 [BC19687]	> 7.00	< 5.00	–	–
COc1ccc(NS(=O)(=O)c2cc(Br)cc3c2OCCC(=O)N3)cc1Cl [BC19688]	< 5.00	< 5.00	–	–
O=C1CCOc2cc(S(=O)(=O)Nc3ccccc3)c(Br)cc2N1 [BC19689]	< 5.00	5.00 to 6.00	–	–
CCc1ccc(NS(=O)(=O)c2cc3c(cc2Br)NC(=O)CCO3)cc1 [BC19690]	< 5.00	< 5.00	–	–
COc1ccc(NS(=O)(=O)c2cc3c(cc2Br)NC(=O)CCO3)cc1 [BC19692]	< 5.00	< 5.00	–	–
O=C1CCOc2cc(S(=O)(=O)Nc3ccc(F)cc3F)c(Br)cc2N1 [BC19693]	< 5.00	< 5.00	–	–
COc1ccc(NS(=O)(=O)c2cc3c(cc2Br)NC(=O)CCO3)cc1Cl [BC19694]	< 5.00	< 5.00	–	–
N#Cc1ccc(NS(=O)(=O)c2cc3c(cc2Br)NC(=O)CCO3)cc1 [BC19695]	< 5.00	5.00 to 6.00	–	–
CC1Oc2cc(S(=O)(=O)Nc3ccc(Cl)cc3)c(Cl)cc2NC1=O (stereo not shown) [BC19696]	–	–	6.00 to 7.00	< 5.00
CC1Oc2c(cc(Cl)cc2S(=O)(=O)Nc2ccc(Cl)cc2)NC1=O (stereo not shown) [BC19697]	–	–	> 7.00	< 5.00
CC1Oc2cc(S(=O)(=O)Nc3ccc(F)c(F)c3)c(Cl)cc2NC1=O (stereo not shown) [BC19698]	–	–	> 7.00	< 5.00
CC1Oc2c(cc(Cl)cc2S(=O)(=O)Nc2ccc(F)c(F)c2)NC1=O (stereo not shown) [BC19699]	–	–	> 7.00	< 5.00
Cc1ccc(NS(=O)(=O)c2cc3c(cc2Cl)NC(=O)C(C)O3)cc1F (stereo not shown) [BC19700]	–	–	> 7.00	< 5.00
Cc1ccc(NS(=O)(=O)c2cc(Cl)cc3c2OC(C)C(=O)N3)cc1F (stereo not shown) [BC19701]	–	–	> 7.00	< 5.00

Structure (SMILES)	pIC50 (NF-κB; LPS-stimulated)	pIC50 (TNF release; [1])	pIC50 (NF-κB; [2])	pIC50 (TNF release; [3])
CCc1ccc(NS(=O)(=O)c2cc3c(cc2Cl)NC(=O)C(C)O3)cc1 (stereo not shown) [BC19702]	–	–	> 7.00	< 5.00
CCc1ccc(NS(=O)(=O)c2cc(Cl)cc3c2OC(C)C(=O)N3)cc1 (stereo not shown) [BC19703]	–	–	> 7.00	< 5.00
CC1Oc2c(cc(Cl)cc2S(=O)(=O)Nc2ccc(C(C)C)cc2)NC1=O (stereo not shown) [BC19705]	–	–	> 7.00	< 5.00
COc1ccc(NS(=O)(=O)c2cc3c(cc2Cl)NC(=O)C(C)O3)cc1 (stereo not shown) [BC19706]	–	–	> 7.00	< 5.00
COc1ccc(NS(=O)(=O)c2cc(Cl)cc3c2OC(C)C(=O)N3)cc1 (stereo not shown) [BC19707]	–	–	> 7.00	< 5.00
Cc1ccc(NS(=O)(=O)c2cc3c(cc2Cl)NC(=O)C(C)O3)cc1Cl (stereo not shown) [BC19708]	–	–	> 7.00	< 5.00
CC1Oc2cc(S(=O)(=O)Nc3ccc(F)cc3F)c(Cl)cc2NC1=O (stereo not shown) [BC19709]	–	–	> 7.00	< 5.00
CC1Oc2c(cc(Cl)cc2S(=O)(=O)Nc2ccc(F)cc2F)NC1=O (stereo not shown) [BC19710]	–	–	> 7.00	< 5.00
CCc1cccc(NS(=O)(=O)c2cc3c(cc2Cl)NC(=O)C(C)O3)c1 (stereo not shown) [BC19711]	–	–	> 7.00	< 5.00
CCc1cccc(NS(=O)(=O)c2cc(Cl)cc3c2OC(C)C(=O)N3)c1 (stereo not shown) [BC19712]	–	–	> 7.00	< 5.00
CC1Oc2cc(S(=O)(=O)Nc3cccc(F)c3)c(Cl)cc2NC1=O (stereo not shown) [BC19713]	–	–	6.00 to 7.00	5.00 to 6.00
CC1Oc2c(cc(Cl)cc2S(=O)(=O)Nc2cccc(F)c2)NC1=O (stereo not shown) [BC19714]	–	–	> 7.00	5.00 to 6.00
CC1Oc2cc(S(=O)(=O)Nc3cccc(Cl)c3)c(Cl)cc2NC1=O (stereo not shown) [BC19715]	–	–	> 7.00	5.00 to 6.00
CC1Oc2c(cc(Cl)cc2S(=O)(=O)Nc2cccc(Cl)c2)NC1=O (stereo not shown) [BC19716]	–	–	> 7.00	5.00 to 6.00
Cc1ccc(NS(=O)(=O)c2cc3c(cc2Cl)NC(=O)C(C)O3)cc1 (stereo not shown) [BC19717]	–	–	> 7.00	< 5.00
Cc1ccc(NS(=O)(=O)c2cc(Cl)cc3c2OC(C)C(=O)N3)cc1 (stereo not shown) [BC19718]	–	–	> 7.00	5.00 to 6.00
CC1Oc2cc(S(=O)(=O)Nc3ccc(F)cc3Cl)c(Cl)cc2NC1=O (stereo not shown) [BC19719]	–	–	6.00 to 7.00	< 5.00
CC1Oc2c(cc(Cl)cc2S(=O)(=O)Nc2ccc(F)cc2Cl)NC1=O (stereo not shown) [BC19720]	–	–	> 7.00	< 5.00

Results, then the compound that gave them:

pIC50 (NF-κB; LPS-stimulated)	pIC50 (TNF release; [1])	pIC50 (NF-κB; [2])	pIC50 (TNF release; [3])	Structure (SMILES)
6.00 to 7.00	< 5.00	–	–	CN1CCN(C(=O)C2CCc3nc(-c4ccc(F)cc4)c(-c4ccc(F)cc4)nc3C2)CC1 (stereo not shown) [BC19663]
6.00 to 7.00	6.00 to 7.00	–	–	OCCCn1c(-c2ccc3nc(-c4ccc(F)cc4)c(-c4ccc(F)cc4)nc3c2)n[nH]c1=S [BC19664]
> 7.00	5.00 to 6.00	–	–	OCCCn1cnnc1-c1ccc2nc(-c3ccc(F)cc3)c(-c3ccc(F)cc3)nc2c1 [BC19665]
6.00 to 7.00	< 5.00	–	–	CN1CCN(C(=O)c2cc3nc(-c4ccc(F)cc4)c(-c4ccc(F)cc4)nc3cn2)CC1 [BC19666]
< 5.00	< 5.00	–	–	Cn1oc(-c2ccc3nc(-c4ccc(F)cc4)c(-c4ccc(F)cc4)nc3c2)cc1=O [BC19667]
6.00 to 7.00	< 5.00	–	–	C/N=C(\c1ccc2nc(-c3ccc(F)cc3)c(-c3ccc(F)cc3)nc2c1)N1CCN(C)CC1 [BC19668]
5.00 to 6.00	> 7.00	–	–	C[S+]([O-])c1sc(-c2ccc3ccccc3c2)nc1S(=O)(=O)c1ccc(Cl)cc1 (stereo not shown) [BC19671]
5.00 to 6.00	6.00 to 7.00	–	–	CS(=O)(=O)c1sc(-c2ccc3ccccc3c2)nc1S(=O)(=O)c1ccc(Cl)cc1 [BC19672]
5.00 to 6.00	< 5.00	–	–	CCC[S+]([O-])c1sc(-c2ccc3ccccc3c2)nc1S(=O)(=O)c1ccc(Cl)cc1 (stereo not shown) [BC19673]
5.00 to 6.00	< 5.00	–	–	CCCS(=O)(=O)c1sc(-c2ccc3ccccc3c2)nc1S(=O)(=O)c1ccc(Cl)cc1 [BC19674]
5.00 to 6.00	5.00 to 6.00	–	–	CC(C)C[S+]([O-])c1sc(-c2ccc3ccccc3c2)nc1S(=O)(=O)c1ccc(Cl)cc1 (stereo not shown) [BC19675]
5.00 to 6.00	< 5.00	–	–	O=S(=O)(CC1CC1)c1sc(-c2ccc3ccccc3c2)nc1S(=O)(=O)c1ccc(Cl)cc1 [BC19676]
5.00 to 6.00	5.00 to 6.00	–	–	COCC[S+]([O-])c1sc(-c2ccc3ccccc3c2)nc1S(=O)(=O)c1ccc(Cl)cc1 (stereo not shown) [BC19677]
5.00 to 6.00	5.00 to 6.00	–	–	COCCS(=O)(=O)c1sc(-c2ccc3ccccc3c2)nc1S(=O)(=O)c1ccc(Cl)cc1 [BC19678]
< 5.00	< 5.00	–	–	CCCSc1snc(-c2ccc(F)cc2)c1S(=O)(=O)c1ccc(Cl)cc1 [BC19680]
6.00 to 7.00	> 7.00	–	–	CCC[S+]([O-])c1snc(-c2ccc(F)cc2)c1S(=O)(=O)c1ccc(Cl)cc1 (stereo not shown) [BC19681]
6.00 to 7.00	> 7.00	–	–	CCCS(=O)(=O)c1snc(-c2ccc(F)cc2)c1S(=O)(=O)c1ccc(Cl)cc1 [BC19682]
